test system: recombinant NL4-3 virus (nef section replaced with Renilla luciferase gene, Gag P373S); assay: HIV Cell Culture Assay; assay type: cell-based; conditions: NL43
Procedure: MT-2 cells and 293T cells were obtained from the NIH AIDS Research and Reference Reagent Program. MT-2 cells were propagated in RPMI 1640 media supplemented with 10% heat inactivated fetal bovine serum, […]. The 293T cells were propagated in DMEM media supplemented with 10% heat inactivated fetal bovine serum (FBS), 100 units/ml penicillin G and 100 μg/ml streptomycin. The proviral DNA clone of NL4-3 was obtained from the NIH AIDS Research and Reference Reagent Program. A recombinant NL4-3 virus, in which a section of the nef gene from NL4-3 was replaced with the Renilla luciferase gene, was used as a reference virus. In addition, residue Gag P373 was converted to P373S. Briefly, the recombinant virus was prepared by transfection of the altered proviral clone of NL4-3. Transfections were performed in 293T cells using LipofectAMINE PLUS from Invitrogen (Carlsbad, Calif.), according to manufacturer's instruction. The virus was titered in MT-2 cells using luciferase enzyme activity as a marker. Luciferase was quantitated using the Dual Luciferase kit from Promega (Madison, Wis.), with modifications to the manufacturer's protocol. The diluted Passive Lysis solution was pre-mixed with the re-suspended Luciferase Assay Reagent and the re-suspended Stop & Glo Substrate (2:1:1 ratio). Fifty (50) μL of the mixture was added to each aspirated well on assay plates and luciferase activity was measured immediately on a Wallac TriLux (Perkin-Elmer). Antiviral activities of inhibitors toward the recombinant virus were quantified by measuring luciferase activity in cells infected for 4-5 days with NLRluc recombinants in the presence serial dilutions of the inhibitor. Note that some of the data is provided in abbreviated exponential form such that, for example, 2.53E−3, is equivalent to 2.53×10^−3.

Row | SMILES | EC50
1 | CC(C)[C@@H]1CC[C@]2(NC(=O)NCCN(C)C)CC[C@]3(C)[C@H](CC[C@@H]4[C@@]5(C)CC[C@@H](c6ccc(C(=O)O)cc6)C(C)(C)[C@@H]5CC[C@]43C)[C@@H]12 (single isomer, unassigned) [Example B5] | 5.16 nM
2 | CC(C)[C@@H]1CC[C@]2(NC(=O)NCCCN(C)C)CC[C@]3(C)[C@H](CC[C@@H]4[C@@]5(C)CC[C@@H](c6ccc(C(=O)O)cc6)C(C)(C)[C@@H]5CC[C@]43C)[C@@H]12 (single isomer, unassigned) [Example B6] | 5.13 nM
3 | CC(C)[C@@H]1CC[C@]2(NC(=O)OCCN(C)C)CC[C@]3(C)[C@H](CC[C@@H]4[C@@]5(C)CC[C@@H](c6ccc(C(=O)O)cc6)C(C)(C)[C@@H]5CC[C@]43C)[C@@H]12 (single isomer, unassigned) [Example B7] | 6.45 nM
4 | CC(C)[C@@H]1CC[C@]2(NC(=O)OCCCN(C)C)CC[C@]3(C)[C@H](CC[C@@H]4[C@@]5(C)CC[C@@H](c6ccc(C(=O)O)cc6)C(C)(C)[C@@H]5CC[C@]43C)[C@@H]12 (single isomer, unassigned) [Example B8] | 4.49 nM
5 | CC(C)[C@@H]1CC[C@]2(NC(=O)CN(C)C)CC[C@]3(C)[C@H](CC[C@@H]4[C@@]5(C)CC[C@@H](c6ccc(C(=O)O)cc6)C(C)(C)[C@@H]5CC[C@]43C)[C@@H]12 (single isomer, unassigned) [Example B9] | 10 nM
6 | CC(C)[C@@H]1CC[C@]2(NC(=O)CCN(C)C)CC[C@]3(C)[C@H](CC[C@@H]4[C@@]5(C)CC[C@@H](c6ccc(C(=O)O)cc6)C(C)(C)[C@@H]5CC[C@]43C)[C@@H]12 (single isomer, unassigned) [Example B10] | 3.81 nM
7 | CC(C)[C@@H]1CC[C@]2(NC(=O)CCCN(C)C)CC[C@]3(C)[C@H](CC[C@@H]4[C@@]5(C)CC[C@@H](c6ccc(C(=O)O)cc6)C(C)(C)[C@@H]5CC[C@]43C)[C@@H]12 (single isomer, unassigned) [Example B11] | 5.94 nM
8 | CC(C)[C@@H]1CC[C@]2(NCCN3C[C@@H]4C[C@H]3CS4(=O)=O)CC[C@]3(C)[C@H](CC[C@@H]4[C@@]5(C)CC[C@@H](c6ccc(C(=O)O)cc6)C(C)(C)[C@@H]5CC[C@]43C)[C@@H]12 (single isomer, unassigned) [Example B12] | 0.605 nM
9 | CC(C)[C@@H]1CC[C@]2(C(=O)O)CC[C@]3(C)[C@H](CC[C@@H]4[C@@]5(C)CC[C@@H](c6ccc(C(=O)O)cc6)C(C)(C)[C@@H]5CC[C@]43C)[C@@H]12 [Example B1, (1S,3aS,5aR,5bR,7aS,9R,11aS,11bR,13aR,13bR)-9-(4-carboxyphenyl)-1-isopropyl-5a,5b,8,8,8,11a-pentamethylicosahydro-1H-cyclopenta[a]chrysene-3a-carboxylic acid] | 10 nM
10 | CC(C)[C@@H]1CC[C@]2(C(=O)NCCN(C)C)CC[C@]3(C)[C@H](CC[C@@H]4[C@@]5(C)CC[C@@H](c6ccc(C(=O)O)cc6)C(C)(C)[C@@H]5CC[C@]43C)[C@@H]12 [Example B2, 4-((1S,3aS,5aR,5bR,7aS,9R,11aS,11bR,13aR,13bR)-3a-((2-(dimethylamino)ethyl)carbamoyl)-1-isopropyl-5a,5b,8,8,11a-pentamethylicosahydro-1H-cyclopenta[a]chrysen-9-yl)benzoic acid] | 2.53 nM
11 | CC(C)[C@@H]1CC[C@]2(C(=O)NCCCN(C)C)CC[C@]3(C)[C@H](CC[C@@H]4[C@@]5(C)CC[C@@H](c6ccc(C(=O)O)cc6)C(C)(C)[C@@H]5CC[C@]43C)[C@@H]12 [Example B3, 4-((1S,3aS,5aR,5bR,7aS,9R,11aS,11bR,13aR,13bR)-3a-((3-(dimethylamino)propyl)carbamoyl)-1-isopropyl-5a,5b,8,8,11a-pentamethylicosahydro-1H-cyclopenta[a]chrysen-9-yl)benzoic acid] | 2.33 nM
12 | CC(C)[C@@H]1CC[C@]2(N)CC[C@]3(C)[C@H](CC[C@@H]4[C@@]5(C)CC[C@@H](c6ccc(C(=O)O)cc6)C(C)(C)[C@@H]5CC[C@]43C)[C@@H]12 [Example B4, 4-((1S,3aS,5aR,5bR,7aS,9R,11aS,11bR,13aR,13bR)-3a-amino-1-isopropyl-5a,5b,8,8,11a-pentamethylicosahydro-1H-cyclopenta[a]chrysen-9-yl)benzoic acid] | 4.53 nM
13 | CC(C)[C@@H]1CC[C@]2(NCCN3CCC(S(C)(=O)=O)CC3)CC[C@]3(C)[C@H](CC[C@@H]4[C@@]5(C)CC[C@@H](c6ccc(C(=O)O)cc6)C(C)(C)[C@@H]5CC[C@]43C)[C@@H]12 [Example B13, 4-((1S,3aS,5aR,5bR,7aS,9R,11aS,11bR,13aR,13bR)-1-isopropyl-5a,5b,8,8,11a-pentamethyl-3a-((2-(4-(methylsulfonyl)piperidin-1-yl)ethyl)amino)icosahydro-1H-cyclopenta[a]chrysen-9-yl)benzoic acid] | 1.58 nM
